Results from patent US20220218725A1, “METHODS AND MATERIALS FOR TREATING CANCER” (Mayo Foundation for Medical Education and Research, priority 2019, published 2022).

Key:
[1] = test system: A549 cells; assay: Cell viability, Annexin V/PI assay; format: cell-based; settings: A549 (Non-small cell lung cancer); 48 hours; KPT-330 0.1-1.0 μM, CS 1-3 mM, single agent or combination
Protocol: (§1) Cell lines were purchased from the cell line repositories ATCC (Manassas, Va.) or DSMZ (Braunschweig, Germany). These included MCL cell lines: JeKo-1, Mino; TCL cell lines: Karpas-299, SR-786; DLBCL cell lines: OCI-Ly1 (LY-1), OCI-Ly3 (LY-3), OCI-Ly19 (LY-19), SU-DHL-6 (DHL-6); MM cell lines: RPMI, U266, OPM2, Xgl, KMS2; ALL cell lines: CRL-1783; non-small cell lung cancer: NCI-H460, A549, HCC827; small cell lung cancer: H1048; sarcoma: Fuji, SW872. Cell lines were cultured according to instruction.
(§2) KPT-330 purchased from Selleckchem (cat no: S7252) was dissolved in DMSO while CS (Santa Cruz, Calif.S 2016-36-6), sodium salicylate (Sigma-Aldrich, cat no: S3007), acetyl salicylate (Sigma-Aldrich, cat no: CAS 50-78-2) was diluted in PBS. Ketorolac (Sigma-Aldrich, cat no: 1356665), Bortezomib (Selleckchem, cat no: S1013), gemcitabine (Sigma-Aldrich, cat no: G6423), Leptomycin-B (Sigma-Aldrich, cat no: L2913-2X) and KPT-185 (Selleckchem, cat no: S7125) were dissolved in DMSO. The concentration range of KPT-330 was 0.05-1.0 μM while CS was 1-3 mM were used for ex vivo treatment and incubation time ranged from 24 hours to 72 hours. For the PARP inhibitor assay, olaparib 10 μM (SelleckChem, cat no: AZD2281 Ku-0059436) was used.
(§3) The viability assessment for cell lines and primary patients samples were conducted with the Annexin V/PI method.

[2] = test system: CRL-1873 (RS4-11 cells); assay: Cell viability, Annexin V/PI assay; format: cell-based; settings: CRL-1873 (ALL); 48 hours; KPT-330 0.1-1.0 μM, CS 1-3 mM, single agent or combination
Protocol: as §1, §2, §3

[3] = test system: FuJi cells; assay: Cell viability, Annexin V/PI assay; format: cell-based; settings: FuJi (Sarcoma); 48 hours; KPT-330 0.1-1.0 μM, CS 1-3 mM, single agent or combination
Protocol: as §1, §2, §3

[4] = test system: H1048 cells; assay: Cell viability, Annexin V/PI assay; format: cell-based; settings: H1048 (Small-cell lung cancer); 48 hours; KPT-330 0.1-1.0 μM, CS 1-3 mM, single agent or combination
Protocol: as §1, §2, §3

[5] = test system: H460 cells; assay: Cell viability, Annexin V/PI assay; format: cell-based; settings: H460 (Non-small cell lung cancer); 48 hours; KPT-330 0.1-1.0 μM, CS 1-3 mM, single agent or combination
Protocol: as §1, §2, §3

[6] = test system: HCC827 cells; assay: Cell viability, Annexin V/PI assay; format: cell-based; settings: HCC827 (Non-small cell lung cancer); 48 hours; KPT-330 0.1-1.0 μM, CS 1-3 mM, single agent or combination
Protocol: as §1, §2, §3

[7] = test system: KMS2 cells; assay: Cell viability, Annexin V/PI assay; format: cell-based; settings: KMS2 (MM); 48 hours; KPT-330 0.1-1.0 μM, CS 1-3 mM, single agent or combination
Protocol: as §1, §2, §3

[8] = test system: Karpas-299 cells; assay: Cell viability, Annexin V/PI assay; format: cell-based; settings: Karpas-299 (TCL); 48 hours; KPT-330 0.1-1.0 μM, CS 1-3 mM, single agent or combination
Protocol: as §1, §2, §3

[9] = test system: Mino cells; assay: Cell viability, Annexin V/PI assay; format: cell-based; settings: Mino (MCL); 48 hours; KPT-330 0.1-1.0 μM, CS 1-3 mM, single agent or combination
Protocol: as §1, §2, §3

[10] = test system: OPM2 cells; assay: Cell viability, Annexin V/PI assay; format: cell-based; settings: OPM2 (MM); 48 hours; KPT-330 0.1-1.0 μM, CS 1-3 mM, single agent or combination
Protocol: as §1, §2, §3

[11] = test system: SR-786 cells; assay: Cell viability, Annexin V/PI assay; format: cell-based; settings: SR-786 (TCL); 48 hours; KPT-330 0.1-1.0 μM, CS 1-3 mM, single agent or combination
Protocol: as §1, §2, §3

[12] = test system: SW872 cells; assay: Cell viability, Annexin V/PI assay; format: cell-based; settings: SW872 (Sarcoma); 48 hours; KPT-330 0.1-1.0 μM, CS 1-3 mM, single agent or combination
Protocol: as §1, §2, §3

[13] = test system: U266 cells; assay: Cell viability, Annexin V/PI assay; format: cell-based; settings: U266 (MM); 48 hours; KPT-330 0.1-1.0 μM, CS 1-3 mM, single agent or combination
Protocol: as §1, §2, §3

[14] = test system: Xg1 cells; assay: Cell viability, Annexin V/PI assay; format: cell-based; settings: Xg1 (MM); 48 hours; KPT-330 0.1-1.0 μM, CS 1-3 mM, single agent or combination
Protocol: as §1, §2, §3

[15] = test system: OCI-Ly1 cells; assay: Cell viability, Annexin V/PI assay (also IC50 and combination index)
Protocol: To assess apoptosis and cellular proliferation, all cell lines were treated with CRM 1 inhibitors (concentration ranging from 0.05-2 μM) and salicylates at concentrations ranging from (0.001-10 mM) for 48 hours before analysis was performed. DMSO was used to substitute the drug in controls.
After 48 hours incubation, cells were washed with Annexin buffer solution and stained with both propidium iodide (PI) and FITC-Annexin V (Life Technologies), and assayed on a BD Accuri flow cytometer (BD Biosciences). Apoptosis results were analyzed with BD CellQuest software. […]
Jeko-1 and OCI-Ly1 cell lines were used to assess the IC50. […] Relative IC50 was calculated as described elsewhere (see, e.g., Sebaugh et al., Pharmaceutical statistics 10:128-134 (2011)). The combination index was calculated as described elsewhere (see, e.g., Chou et al., Cancer Res 70:440-446 (2010)).

[16] = test system: OCI-Ly3 cells; assay: Cell viability, Annexin V/PI assay; format: cell-based; settings: OCI-Ly3 (DLBCL); 48 hours; KPT-330 0.1-1.0 μM, CS 1-3 mM, single agent or combination
Protocol: DMSO was used to substitute the drug in controls.
Apoptosis results were analyzed with BD CellQuest software.
Cell lines were cultured according to instruction.

IC50 ([15]; Homo sapiens, OCI-Ly1, 72 h) [nM]	SMILES	% viability normalized for respective controls [1] [%]	% viability normalized for respective controls [2] [%]	% viability normalized for respective controls [3] [%]	% viability normalized for respective controls [4] [%]	% viability normalized for respective controls [5] [%]	% viability normalized for respective controls [6] [%]	% viability normalized for respective controls [7] [%]	% viability normalized for respective controls [8] [%]	% viability normalized for respective controls [9] [%]	% viability normalized for respective controls [10] [%]	% viability normalized for respective controls [11] [%]	% viability normalized for respective controls [12] [%]	% viability normalized for respective controls [13] [%]	% viability normalized for respective controls [14] [%]	% viability normalized for respective controls [16] [%]	% viability normalized for respective controls ([15]; OCI-Ly1 (DLBCL), 48 hours, KPT-330 0.1-1.0 μM, CS 1-3 mM, single agent or combination) [%]
1800	O=C(/C=C\n1cnc(-c2cc(C(F)(F)F)cc(C(F)(F)F)c2)n1)NNc1cnccn1 [KPT-330, (Z)-3-[3-[3,5-bis (trifluoromethyl)phenyl]-1,2,4-triazol-1-yl]-N′-pyrazin-2-ylprop-2-enehydrazide]	101	79	93	81	93	78	79	88	89	82	91	82	75	76	85	
	C[N+](C)(C)CCO.O=C([O-])c1ccccc1O [CS, choline salicylate]	94	91.5	85	92	105	90	83	80	86	98	100	88	93	95	84	101
